Key:
[1] = target: T1, Recombinant human MnSOD (Homo sapiens, UniProt P04179); assay: In vitro modification of SOD and SOD activity; assay type: biochemical; settings: POVPC molar ratio 1:40, 37° C. overnight, vs native MnSOD
T1 construct: purchased Abcam ab82656
T1 sequence (P04179 25-222): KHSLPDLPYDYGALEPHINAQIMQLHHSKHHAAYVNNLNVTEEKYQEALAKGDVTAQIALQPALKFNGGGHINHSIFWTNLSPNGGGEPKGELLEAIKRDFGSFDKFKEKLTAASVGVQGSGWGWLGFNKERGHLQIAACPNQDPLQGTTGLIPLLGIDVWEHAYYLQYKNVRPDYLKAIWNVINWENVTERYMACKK
Protocol: In vitro modification of SOD and SOD activity: Recombinant human MnSOD (Abcam, ab82656) was incubated with POVPC (Avanti Polar Lipids, 870606) (molar ration 1:40) or vehicle at 37° C. overnight. 300 μg/mL NaBH3CN was added to stabilize reversible OxPL adducts. Both native and POVPC modified MnSOD were dialyzed extensively against PBS. SOD activity of recombinant and modified MnSOD and liver and cell lysates was measured with Superoxide Dismutase Activity Assay Kit (Abcam) according to the manufacturer's instruction.

[2] = system: primary hepatocytes; assay: OxPAPC treatment of primary hepatocytes: ROS, mitochondrial membrane potential, fatty acid oxidation, SOD activity; assay type: cell-based, mouse; settings: 200 μM MnTBAP 1 hour, then OxPAPC 100 μg/mL 4 hours, Ldlr−/− hepatocytes
Protocol: Primary hepatocyte isolation: Primary hepatocytes were isolated from 6-week-old Ldlr^−/− and E06-scFvLdlr^−/− mice by a 2-step collagenase perfusion method. Briefly, HBSS (Life Technologies Co.; no Calcium and Magnesium, 0.5 mM EDTA, 25 mM HEPES) was used to perfuse liver at 10 mL/min speed until the liver turns into pale. Afterward, the liver was perfused with HBSS digestion buffer (Life Technologies Co.; 30 mg/100 mL collagenase I, 2 tablet/100 mL protease inhibitor) at 15 mL/min speed for 18 min. After sequential flows, cells were smashed through 100 μm strainer and washed with Williams' Medium E (Gibco, Grand Island, NY). Hepatocytes were isolated by density gradient centrifugation using percoll (Pharmacia, Sweden). Hepatocytes with 95% viability were cultured in Williams' Medium E supplemented with 5% serum, 0.5% penicillin/streptomycin and 15 mM HEPES at 37° C. in a 5% CO2 incubator overnight before use in experimentation.
ROS and Mitochondrial membrane potential measurement: Total ROS was determined with Total ROS detection Kit (ENZ-51011 Enzo Life Sciences Inc.) and mitochondrial ROS levels using MitoSOX (Invitrogen) following the manufacturers' instructions. Mitochondrial membrane potential (Ψm) was measured using TMRM as previously described (Shimada et al., 2012).
Ex vivo/in vitro fatty acid oxidation assay: Liver or adipose tissues were dissected, weighted, quickly rinsed in PBS. Minced tissues were placed in 96-well tissue culture plate. […] Fatty Acid Oxidation was measured with combination of Fatty Acid Oxidation Assay Kit (Abcam) and Oxygen Consumption Assay Kit (Abcam) according to the manufacturer's instruction. […] Fluorescence was measured at 37° C. for 30 min by Tecan Infinite M200 Pro.
In vitro modification of SOD and SOD activity: Recombinant human MnSOD (Abcam, ab82656) was incubated with POVPC (Avanti Polar Lipids, 870606) (molar ration 1:40) or vehicle at 37° C. overnight. […] SOD activity of recombinant and modified MnSOD and liver and cell lysates was measured with Superoxide Dismutase Activity Assay Kit (Abcam) according to the manufacturer's instruction.

Row | Compound | MnSOD activity of POVPC modified MnSOD [1] | OxPL-diminished mitochondrial membrane potential [2] | mitochondrial ROS accumulation [2] | total ROS accumulation [2]
1 | CCCCCCCCCCCCCCCC(=O)OC[C@H](COP(=O)([O-])OCC[N+](C)(C)C)OC(=O)CCCC=O [POVPC, 1-palmitoyl-2-(5′-oxo-valeroyl)-sn-glycero-3-phosphocholine] | significantly decreased activity | – | – | –
2 | O=C(O)c1ccc(/C2=C3\C=CC(=N3)/C(c3ccc(C(=O)O)cc3)=c3/cc/c4[n]3[Mn]([Cl])[n]3c2ccc3/C(c2ccc(C(=O)O)cc2)=C2/C=CC(=N2)\C=4c2ccc(C(=O)O)cc2)cc1 [MnTBAP] | – | restored | abrogated | abrogated
